Measured values as given in patent US20220280590A1, “USE OF INHIBITORS OF YAP AND SOX2 FOR THE TREATMENT OF CANCER” (Georgetown University, priority 2019, published 2022).

How the values were obtained:
[1] = test system: SOX2, SOX5, and TWIST2 in primary PDAC cell lines; experiment: Western blot of pluripotent transcription factors in primary PDAC lines; type: cell-based; conditions: after 24 hours, compared to DMSO control
Method: Western blot assay with indicated antibodies in four different primary PDAC lines expressing variable levels of SOX2/SOX5/TWIST2 after 24 hr treatment with DMSO (−) or Miv (+) is shown. Multiple primary PDAC cell lines were treated with BET inhibitor mivebresib.

[2] = test system: mT4, 08031-9, MD-MB-231, 786-O and HepG2 cells; experiment: FACS analysis of relative ratios of control (RFP-) and YAP/TAZ-depleted (shY/T, RFP+) cancer cells in co-culture; type: cell-based; conditions: compared to vehicle, pancreatic, schwannoma, breast, kidney and liver cancer lines
Method: FACS analysis of the relative ratios of control (Ctrl, RFP-) or YAP/TAZ-depleted (shY/T, RFP^+) cancer cells after co-culturing in the presence of vehicle (Veh) or BE inhibitor mivebresib (Miv) was performed (n=3). […] The YAP/TAZ hairpin RNAs were fused with fluorescent protein RFP. […] (FIG. 8).

[3] = test system: primary KYYF pancreatic tumor cells; experiment: Percent of global DNA methylation in KYYF cells; type: cell-based, mouse; conditions: 5 μM, 3 days versus DMSO
Excerpt: (§1) (*P<0.05; **P<0.005; ***P<0.0005; ns: not significant; error bars indicate standard deviation).
(§2) Quantitative methylation-specific PCR (qMSP) was used to confirm that the promoters of acinar lineage genes Ptf1a and Bhlha15 became heavily methylated in KF pancreatic tumors in contrast to wild type (WT) pancreata, which was partially reversed in KYYF pancreata after TAM treatment (FIG. 5L). To directly assess the effects of DNA de-methylation on the expression of pancreatic lineage genes, YAP^+ primary pancreatic tumor cells were treated with vehicle control or DNA methylation inhibitor 5-azacytidine (5-Aza). […] The levels of global DNA methylation in primary KYYF pancreatic tumor cells were measured following treatment with Ad-GFP or Ad-CRE, and it was confirmed that YAP ablation induced a rapid and significant decline in global DNA methylation, which partially recovered over time (FIG. 5B).

[4] = test system: primary KYYF pancreatic tumor cells; experiment: Relative mRNA levels of lineage genes and SOX2 in KYYF pancreatic tumor cells; type: cell-based, mouse; conditions: YAP+ primary pancreatic tumor cells, 0.5, 2, 5 μM for 3 days versus DMSO
Excerpt: as §1, §2

SMILES | expression of pluripotent transcription factors SOX2, SOX5, and TWIST2 [1] | percentage of control (RFP-) relative to shY/T (RFP+) cancer cells [2] | global DNA methylation [3] | expression of acinar and endocrine lineage genes and SOX2 [4]
CCS(=O)(=O)Nc1ccc(Oc2ccc(F)cc2F)c(-c2cn(C)c(=O)c3[nH]ccc23)c1 [mivebresib] | selectively reduced | greater percentage of control (RFP^−) cancer cells relative to shY/T (RFP^+) cancer cells | – | –
Nc1ncn([C@@H]2O[C@H](CO)[C@@H](O)[C@H]2O)c(=O)n1 [5-Aza, 5-azacytidine] | – | – | global DNA de-methylation | dose-dependent upregulation
